Columns and labels:
[1] = biological target: T1, FXR ligand binding domain (Homo sapiens, UniProt Q96RI1); test: Mammalian One Hybrid (M1H) assay, Gal4 promoter driven transactivation in HEK293 cells; format: cell-based; conditions: Gal4-FXR-LBD luciferase reporter, 16 h
T1 construct: expressed in transfected cells; host or cells: HEK293 cells, transiently transfected with pCMV-BD-FXR-LBD, pFR-Luc and pRL-CMV
T1 sequence (Q96RI1 187-472 isoform Q96RI1-2): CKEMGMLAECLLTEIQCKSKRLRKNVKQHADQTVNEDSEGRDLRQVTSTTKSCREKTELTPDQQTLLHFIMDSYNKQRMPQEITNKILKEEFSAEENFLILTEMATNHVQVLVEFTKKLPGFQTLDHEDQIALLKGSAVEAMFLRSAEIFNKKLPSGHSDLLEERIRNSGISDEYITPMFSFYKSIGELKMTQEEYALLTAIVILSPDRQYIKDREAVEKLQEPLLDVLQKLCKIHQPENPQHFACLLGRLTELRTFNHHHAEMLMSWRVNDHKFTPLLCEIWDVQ
How it was run: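 HEK293 cells were transiently co-transfected with Gal4-DBD fused to the human FXR LBD (aa 187-472, NM_005123), a 5×GAL4-site firefly luciferase reporter and CMV-Renilla control. Compounds were added 2-4 h post-transfection (vehicle ≤0.1%) in charcoal/dextran-stripped FBS medium for 16 h. Firefly and Renilla luciferase were read sequentially, in triplicate.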

[2] = biological target: T2, human FXR alpha ligand binding domain (Homo sapiens, UniProt Q96RI1); test: FRET activity assay (ligand mediated cofactor peptide interaction, LANCE); format: biochemical; conditions: GST-FXR-LBD / biotinylated SRC-1 peptide (676-700), read-out: F EC50
T2 construct: made in house; host or cells: E. coli BL21(DE3), vector pDEST15
T2 sequence (Q96RI1 187-472 isoform Q96RI1-2): T1 sequence (Q96RI1 187-472 isoform Q96RI1-2)
How it was run: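 GST-tagged FXR LBD (aa 187–472, E. coli-expressed) at 20–60 ng/well with 200–600 nM biotinylated SRC-1 peptide (676–700), streptavidin-APC and Eu anti-GST in Tris pH 7.5 buffer, 1% DMSO, equilibrated 1 h dark at room temperature. TR-FRET read as 665/615 nm ratio; agonists raise signal above basal.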

SMILES	EC50 [1]	EC50 [2]
O=C(O)c1ccc2nc([C@]3(O)CC[C@@H](OCc4c(C5CC5)cnn4-c4c(Cl)cccc4Cl)CC3)sc2c1 [Example 11-13, 2-((1s,4s)-4-((4-Cyclopropyl-1-(2,6-dichlorophenyl)-1H-pyrazol-5-yl)methoxy)-1-hydroxycyclohexyl)benzo[d]thiazole-6-carboxylic acid]	440 nM	110 nM
O=C(O)c1ccnc2cc([C@]3(O)CC[C@@H](OCc4c(-c5c(Cl)cccc5Cl)noc4C4CC4)CC3)ccc12 [Example 29, 7-((1s,4s)-4-((5-cyclopropyl-3-(2,6-dichlorophenyl)isoxazol-4-yl)methoxy)-1-hydroxycyclohexyl)quinoline-4-carboxylic acid]	2600 nM	51 nM
O=C(O)c1ccc2sc([C@]3(O)CC[C@H](OCc4c(-c5c(Cl)cccc5Cl)noc4C4CC4)CC3)nc2c1 [Example 5, 2-((1r,4r)-4-((5-Cyclopropyl-3-(2,6-dichlorophenyl)isoxazol-4-yl)methoxy)-1-hydroxycyclohexyl)benzo[d]thiazole-5-carboxylic acid]	1900 nM	620 nM
O=C(O)c1cc(F)c2nc([C@]3(O)CC[C@@H](OCc4c(-c5c(Cl)cncc5Cl)noc4C4CC4)CC3)sc2c1 [Example 11-34, 2-((1s,4s)-4-((5-Cyclopropyl-3-(3,5-dichloropyridin-4-yl)isoxazol-4-yl)methoxy)-1-hydroxycyclohexyl)-4-fluorobenzo[d]thiazole-6-carboxylic acid]	380 nM	55 nM
O=C(O)c1cc2sc([C@]3(O)CC[C@@H](OCc4c(-c5ccccc5OC(F)F)noc4C4CC4)CC3)nc2cc1F [Example 11-19, 2-((1s,4s)-4-((5-Cyclopropyl-3-(2-(difluoromethoxy)phenyl)isoxazol-4-yl)methoxy)-1-hydroxycyclohexyl)-5-fluorobenzo[d]thiazole-6-carboxylic acid]	2500 nM	570 nM
O=C(O)c1ccc2nc([C@]3(O)CC[C@@H](OCc4c(-c5c(C(F)F)cccc5C(F)F)noc4C4CC4)CC3)sc2c1 [Example 11-18, 2-((1s,4s)-4-((3-(2,6-Bis(difluoromethyl)phenyl)-5-cyclopropylisoxazol-4-yl)methoxy)-1-hydroxycyclohexyl)benzo[d]thiazole-6-carboxylic acid]	170 nM	350 nM
OCc1ccc(F)c([C@]2(O)CC[C@@H](OCc3c(-c4c(Cl)cccc4Cl)noc3C3CC3)CC2)c1 [Example 9-7, (1s,4s)-4-((5-Cyclopropyl-3-(2,6-dichlorophenyl)isoxazol-4-yl)methoxy)-1-(2-fluoro-5-(hydroxymethyl)phenyl)cyclohexanol]	150 nM	110 nM
O=C(O)c1ccc2nc([C@]3(O)CC[C@@H](OCc4c(-c5c(Cl)cccc5Cl)noc4C4CC4)CC3)sc2c1 [Example 11-30, 2-((1s,4s)-4-((5-Cyclopropyl-3-(2,6-dichlorophenyl)isoxazol-4-yl)methoxy)-1-hydroxycyclohexyl)benzo[d]thiazole-6-carboxylic acid]	67 nM	64 nM
O=C(O)c1ccnc([C@]2(O)[C@@H]3CC[C@H]2C[C@H](OCc2c(-c4c(Cl)cccc4Cl)noc2C2CC2)C3)c1 [Example 11-26]	1800 nM	53 nM
O=C(O)c1ccc2nc([C@]3(O)[C@@H]4CC[C@H]3C[C@@H](OCc3c(-c5c(Cl)cccc5Cl)noc3C3CC3)C4)sc2c1 [Example 11-23, 2-((1R,3r,5S,8r)-3-((5-Cyclopropyl-3-(2,6-dichlorophenyl)isoxazol-4-yl)methoxy)-8-hydroxybicyclo[3.2.1]octan-8-yl)benzo[d]thiazole-6-carboxylic acid]	18 nM	41 nM
O=C(O)c1cc(F)c2nc([C@]3(O)[C@@H]4CC[C@H]3CC(OCc3c(-c5c(Cl)cccc5Cl)noc3C3CC3)(C(F)F)C4)sc2c1 (single isomer, unassigned) [Example 11-40]	290 nM	420 nM
COCC1(OCc2c(-c3c(Cl)cccc3Cl)noc2C2CC2)C[C@H]2CC[C@@H](C1)[C@]2(O)c1nc2c(F)cc(C(=O)O)cc2s1 (single isomer, unassigned) [Example 11-41]	320 nM	190 nM
CC(C)(Cc1cccc([C@]2(O)[C@@H]3CC[C@H]2C[C@H](OCc2c(-c4c(Cl)cccc4Cl)noc2C2CC2)C3)c1)C(=O)O [Example 11-53, 3-(3-((1R,3s,5S,8r)-3-((5-Cyclopropyl-3-(2,6-dichlorophenyl)isoxazol-4-yl)methoxy)-8-hydroxybicyclo[3.2.1]octan-8-yl)phenyl)-2,2-dimethylpropanoic acid]	391 nM	235 nM
O=C(O)c1cccc2nc([C@]3(O)CC[C@@H](OCc4c(-c5c(Cl)cccc5Cl)noc4C4CC4)CC3)ccc12 [Example 11-44, 2-((1s,4s)-4-((5-Cyclopropyl-3-(2,6-dichlorophenyl)isoxazol-4-yl)methoxy)-1-hydroxycyclohexyl)quinoline-5-carboxylic acid]	120 nM	49 nM
O[C@@]1(c2nc3ccc(Br)cc3s2)[C@@H]2CC[C@H]1C[C@H](OCc1c(-c3c(Cl)cccc3Cl)noc1C1CC1)C2 [Example 15-1, (1R,3s,5S,8r)-8-(6-Bromobenzo[d]thiazol-2-yl)-3-((5-cyclopropyl-3-(2,6-dichlorophenyl)isoxazol-4-yl)methoxy)bicyclo[3.2.1]octan-8-ol]	77 nM	37 nM
CC1(C)C[C@](O)(c2nc3c(F)cc(C(=O)O)cc3s2)CC[C@H]1OCc1c(-c2c(Cl)cccc2Cl)noc1C1CC1 (racemic) [Example 11-33, 2-((1S,4R)-4-((5-Cyclopropyl-3-(2,6-dichlorophenyl)isoxazol-4-yl)methoxy)-1-hydroxy-3,3-dimethylcyclohexyl)-4-fluorobenzo[d]thiazole-6-carboxylic acid]	38 nM	36 nM
O=C(O)c1cc(F)c2nc([C@]3(O)[C@@H]4CC[C@H]3C[C@H](OCc3c(-c5ccccc5OC(F)F)noc3C3CC3)C4)sc2c1 [Example 11-28, 2-((1R,3s,5S,8r)-3-((5-Cyclopropyl-3-(2-(difluoromethoxy)phenyl)isoxazol-4-yl)methoxy)-8-hydroxybicyclo[3.2.1]octan-8-yl)-4-fluorobenzo[d]thiazole-6-carboxylic acid]	17 nM	9.7 nM
O=C(O)c1cc(F)c2nc(C3(O)C[C@H]4CC[C@@H](C3)C4OCc3c(-c4c(Cl)cccc4Cl)noc3C3CC3)sc2c1 (single isomer, unassigned) [Example 11-55]	24 nM	77 nM
O=C(O)c1cc(F)c2nc([C@]3(O)C[C@@H](OCc4c(-c5c(Cl)cccc5Cl)noc4C4CC4)C3)sc2c1 [Example 11-21, 2-((1s,3s)-3-((5-Cyclopropyl-3-(2,6-dichlorophenyl)isoxazol-4-yl)methoxy)-1-hydroxycyclobutyl)-4-fluorobenzo[d]thiazole-6-carboxylic acid]	310 nM	23 nM
O=C(O)Cc1nc([C@]2(O)[C@@H]3CC[C@H]2C[C@H](OCc2c(-c4c(Cl)cccc4Cl)noc2C2CC2)C3)oc1C(F)(F)F [Example 45, 2-(2-((1R,3s,5S,8r)-3-((5-Cyclopropyl-3-(2,6-dichlorophenyl)isoxazol-4-yl)methoxy)-8-hydroxybicyclo[3.2.1]octan-8-yl)-5-(trifluoromethyl)oxazol-4-yl)acetic acid]	7.9 nM	6 nM
O=C(O)c1cccc([C@]2(O)[C@@H]3CC[C@H]2C[C@H](OCc2c(-c4c(Cl)cccc4Cl)noc2C2CC2)C3)c1 [Example 11-25, 3-((1R,3s,5S,8r)-3-((5-Cyclopropyl-3-(2,6-dichlorophenyl)isoxazol-4-yl)methoxy)-8-hydroxybicyclo[3.2.1]octan-8-yl)benzoic acid]	430 nM	79 nM
O=C(O)c1ccc2nc(C3(O)CC4(CC(OCc5c(-c6c(Cl)cccc6Cl)noc5C5CC5)C4)C3)sc2c1 (single isomer, unassigned) [Example 11-4a, 2-(6-((5-Cyclopropyl-3-(2,6-dichlorophenyl)isoxazol-4-yl)methoxy)-2-hydroxyspiro[3.3]heptan-2-yl)benzo[d]thiazole-6-carboxylic acid]	300 nM	56 nM
O=C(NCCN1CCOCC1)c1cc(F)c2nc([C@]3(O)CC[C@@H](OCc4c(-c5c(Cl)cncc5Cl)noc4C4CC4)CC3)sc2c1 [Example 17, 2-((1s,4s)-4-((5-Cyclopropyl-3-(3,5-dichloropyridin-4-yl)isoxazol-4-yl)methoxy)-1-hydroxycyclohexyl)-4-fluoro-N-(2-morpholinoethyl)benzo[d]thiazole-6-carboxamide]	670 nM	150 nM
